# How the values were obtained:
# [1] = molecular target: Rhodopsin kinase GRK1 (Homo sapiens) (UniProt Q15835); details: Compound concentration 1000.0 nM
# [2] = molecular target: Mitogen-activated protein kinase kinase kinase 13 (Homo sapiens) (UniProt O43283); details: Compound concentration 1000.0 nM
# [3] = tested on: Phosphatidylinositol 4,5-bisphosphate 3-kinase catalytic subunit alpha isoform (Homo sapiens), P42336 [C420R]; details: Compound concentration 1000.0 nM
# [4] = molecular target: Serine/threonine-protein kinase PLK2 (Homo sapiens) (UniProt Q9NYY3); details: Compound concentration 1000.0 nM
# Serine/threonine-protein kinase PLK2 (Homo sapiens), sequence (Q9NYY3 whole entry, looked up): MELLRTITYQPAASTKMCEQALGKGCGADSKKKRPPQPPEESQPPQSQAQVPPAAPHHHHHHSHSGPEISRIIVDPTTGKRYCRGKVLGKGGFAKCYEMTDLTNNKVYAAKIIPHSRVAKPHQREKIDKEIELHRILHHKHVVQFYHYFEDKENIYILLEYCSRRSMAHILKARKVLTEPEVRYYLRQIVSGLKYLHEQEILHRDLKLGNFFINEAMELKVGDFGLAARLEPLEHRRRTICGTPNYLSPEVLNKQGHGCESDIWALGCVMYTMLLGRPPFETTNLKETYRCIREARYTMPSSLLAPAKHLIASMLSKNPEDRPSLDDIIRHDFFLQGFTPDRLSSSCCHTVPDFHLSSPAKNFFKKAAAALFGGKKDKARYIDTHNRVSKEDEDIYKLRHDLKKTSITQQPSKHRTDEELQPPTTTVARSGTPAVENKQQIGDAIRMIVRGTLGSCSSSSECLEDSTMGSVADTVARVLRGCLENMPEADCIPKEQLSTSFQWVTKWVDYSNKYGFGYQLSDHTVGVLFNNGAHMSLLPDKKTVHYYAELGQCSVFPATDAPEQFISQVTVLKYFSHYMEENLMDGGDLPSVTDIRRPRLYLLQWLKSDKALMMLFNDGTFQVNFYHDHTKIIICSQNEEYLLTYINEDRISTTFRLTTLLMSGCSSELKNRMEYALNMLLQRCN
# [5] = tested on: Receptor-type tyrosine-protein kinase FLT3 (Homo sapiens), P36888 [N841I]; details: Compound concentration 1000.0 nM
# [6] = molecular target: Serine/threonine-protein kinase MARK2 (Homo sapiens) (UniProt Q7KZI7); details: Compound concentration 1000.0 nM
# [7] = molecular target: NT-3 growth factor receptor (Homo sapiens) (UniProt Q16288); details: Compound concentration 1000.0 nM
# NT-3 growth factor receptor (Homo sapiens), sequence (Q16288 32-839 limits assumed): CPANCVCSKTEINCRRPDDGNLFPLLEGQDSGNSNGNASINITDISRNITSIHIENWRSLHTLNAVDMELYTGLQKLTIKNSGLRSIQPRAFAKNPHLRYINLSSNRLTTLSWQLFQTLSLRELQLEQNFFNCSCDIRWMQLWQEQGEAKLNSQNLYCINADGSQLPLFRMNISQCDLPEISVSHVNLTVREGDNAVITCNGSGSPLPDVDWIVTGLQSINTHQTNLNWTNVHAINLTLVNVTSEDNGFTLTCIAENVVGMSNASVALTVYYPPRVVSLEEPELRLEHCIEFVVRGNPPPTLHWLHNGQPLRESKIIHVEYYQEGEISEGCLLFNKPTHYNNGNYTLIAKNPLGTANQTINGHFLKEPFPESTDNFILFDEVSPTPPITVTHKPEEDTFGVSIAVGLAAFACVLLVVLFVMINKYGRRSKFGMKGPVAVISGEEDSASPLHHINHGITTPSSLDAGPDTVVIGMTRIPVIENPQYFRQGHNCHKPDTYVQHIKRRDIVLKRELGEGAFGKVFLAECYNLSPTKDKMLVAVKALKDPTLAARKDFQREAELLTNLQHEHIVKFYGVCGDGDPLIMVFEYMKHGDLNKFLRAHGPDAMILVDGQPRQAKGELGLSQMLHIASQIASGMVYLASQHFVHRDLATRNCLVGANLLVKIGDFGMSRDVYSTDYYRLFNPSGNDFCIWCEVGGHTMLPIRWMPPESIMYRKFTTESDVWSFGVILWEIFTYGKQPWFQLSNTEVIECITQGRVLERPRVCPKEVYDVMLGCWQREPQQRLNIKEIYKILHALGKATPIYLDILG
# [8] = molecular target: Mitogen-activated protein kinase kinase kinase 11 (Homo sapiens) (UniProt Q16584); details: Compound concentration 1000.0 nM
# Mitogen-activated protein kinase kinase kinase 11 (Homo sapiens), sequence (Q16584 whole entry, looked up): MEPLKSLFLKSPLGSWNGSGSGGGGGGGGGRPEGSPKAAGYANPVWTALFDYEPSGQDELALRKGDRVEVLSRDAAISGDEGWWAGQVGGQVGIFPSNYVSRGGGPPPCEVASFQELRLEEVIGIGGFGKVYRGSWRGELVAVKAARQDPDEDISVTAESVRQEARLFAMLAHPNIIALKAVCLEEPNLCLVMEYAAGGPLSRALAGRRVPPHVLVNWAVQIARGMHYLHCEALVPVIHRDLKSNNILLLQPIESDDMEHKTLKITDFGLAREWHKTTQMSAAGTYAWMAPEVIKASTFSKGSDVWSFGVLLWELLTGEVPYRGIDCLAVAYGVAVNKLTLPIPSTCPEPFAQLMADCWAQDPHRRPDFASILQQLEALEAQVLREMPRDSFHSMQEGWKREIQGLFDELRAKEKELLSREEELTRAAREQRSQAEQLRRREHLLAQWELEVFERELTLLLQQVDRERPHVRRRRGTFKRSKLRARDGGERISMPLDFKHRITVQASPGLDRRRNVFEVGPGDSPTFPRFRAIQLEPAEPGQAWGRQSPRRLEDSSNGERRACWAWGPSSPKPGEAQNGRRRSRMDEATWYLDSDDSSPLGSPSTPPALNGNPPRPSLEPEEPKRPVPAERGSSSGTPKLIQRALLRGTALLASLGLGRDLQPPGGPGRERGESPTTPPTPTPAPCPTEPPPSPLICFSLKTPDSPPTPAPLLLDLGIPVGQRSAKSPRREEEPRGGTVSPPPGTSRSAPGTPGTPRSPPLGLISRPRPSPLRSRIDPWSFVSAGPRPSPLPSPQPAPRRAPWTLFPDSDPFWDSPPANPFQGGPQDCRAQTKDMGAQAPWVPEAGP
# [9] = molecular target: Tyrosine-protein kinase Fyn (Homo sapiens) (UniProt P06241); details: Compound concentration 1000.0 nM
# [10] = molecular target: TRAF2 and NCK-interacting protein kinase (Homo sapiens) (UniProt Q9UKE5); details: Compound concentration 1000.0 nM
# [11] = molecular target: Serine/threonine-protein kinase N1 (Homo sapiens) (UniProt Q16512); details: Compound concentration 1000.0 nM
# [12] = molecular target: Protein kinase C iota type (Homo sapiens) (UniProt P41743); details: Compound concentration 1000.0 nM
# Protein kinase C iota type (Homo sapiens), sequence (P41743 whole entry): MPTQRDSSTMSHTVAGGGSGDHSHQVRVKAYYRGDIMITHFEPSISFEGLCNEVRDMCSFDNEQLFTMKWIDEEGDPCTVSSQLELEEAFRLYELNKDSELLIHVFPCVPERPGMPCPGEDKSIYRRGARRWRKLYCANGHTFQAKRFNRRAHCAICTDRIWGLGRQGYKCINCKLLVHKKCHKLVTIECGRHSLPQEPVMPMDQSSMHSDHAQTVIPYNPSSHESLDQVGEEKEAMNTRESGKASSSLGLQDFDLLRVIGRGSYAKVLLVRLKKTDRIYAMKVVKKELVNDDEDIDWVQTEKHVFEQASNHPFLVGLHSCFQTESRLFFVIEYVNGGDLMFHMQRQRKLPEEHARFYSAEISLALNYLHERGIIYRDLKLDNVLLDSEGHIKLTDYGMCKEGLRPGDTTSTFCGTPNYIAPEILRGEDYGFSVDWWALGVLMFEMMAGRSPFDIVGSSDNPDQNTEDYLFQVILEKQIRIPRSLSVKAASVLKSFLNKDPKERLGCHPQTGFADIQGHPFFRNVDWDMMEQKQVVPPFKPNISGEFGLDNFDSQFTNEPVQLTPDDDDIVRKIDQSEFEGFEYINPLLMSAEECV
# [13] = molecular target: SRSF protein kinase 3 (Homo sapiens) (UniProt Q9UPE1); details: Compound concentration 1000.0 nM
# [14] = tested on: Epidermal growth factor receptor (Homo sapiens), P00533 [L858R]; details: Compound concentration 1000.0 nM
# [15] = molecular target: Dual specificity protein kinase CLK2 (Homo sapiens) (UniProt P49760); details: Compound concentration 1000.0 nM
# Dual specificity protein kinase CLK2 (Homo sapiens), sequence (P49760 whole entry, looked up): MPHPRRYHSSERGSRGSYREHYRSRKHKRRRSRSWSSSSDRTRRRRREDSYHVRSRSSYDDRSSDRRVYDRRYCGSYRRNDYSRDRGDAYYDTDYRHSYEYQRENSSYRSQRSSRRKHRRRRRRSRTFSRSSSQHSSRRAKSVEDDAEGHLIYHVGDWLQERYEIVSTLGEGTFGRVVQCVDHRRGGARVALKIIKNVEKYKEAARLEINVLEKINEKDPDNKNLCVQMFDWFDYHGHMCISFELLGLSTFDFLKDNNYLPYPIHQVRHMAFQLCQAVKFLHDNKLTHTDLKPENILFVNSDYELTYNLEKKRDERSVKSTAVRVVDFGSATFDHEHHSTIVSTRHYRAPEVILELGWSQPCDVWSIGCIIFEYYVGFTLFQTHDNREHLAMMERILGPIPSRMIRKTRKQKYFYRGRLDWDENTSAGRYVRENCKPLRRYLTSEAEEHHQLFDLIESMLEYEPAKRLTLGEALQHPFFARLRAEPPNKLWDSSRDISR
# [16] = molecular target: Cyclin-dependent kinase 8 (Homo sapiens) (UniProt P49336); details: Compound concentration 1000.0 nM
# [17] = molecular target: Death-associated protein kinase 3 (Homo sapiens) (UniProt O43293); details: Compound concentration 1000.0 nM
# [18] = molecular target: Serine/threonine-protein kinase WNK3 (Homo sapiens) (UniProt Q9BYP7); details: Compound concentration 1000.0 nM
# [19] = molecular target: Mu-type opioid receptor (Homo sapiens) (UniProt P35372); details: Compound concentration 10.0 uM
# [20] = molecular target: Dual specificity tyrosine-phosphorylation-regulated kinase 1B (Homo sapiens) (UniProt Q9Y463); details: Compound concentration 1000.0 nM
# [21] = molecular target: Serine/threonine-protein kinase PRP4 homolog (Homo sapiens) (UniProt Q13523); details: Compound concentration 1000.0 nM
# [22] = molecular target: Sodium-dependent serotonin transporter (Homo sapiens) (UniProt P31645); details: Compound concentration 10.0 uM
# [23] = molecular target: Mitogen-activated protein kinase kinase kinase 3 (Homo sapiens) (UniProt Q99759); details: Compound concentration 1000.0 nM
# [24] = tested on: Tyrosine-protein kinase ABL1 (Homo sapiens), P00519 [T315I]; details: Compound concentration 1000.0 nM
# [25] = molecular target: Calcium/calmodulin-dependent protein kinase type 1D (Homo sapiens) (UniProt Q8IU85); details: Compound concentration 1000.0 nM
# Calcium/calmodulin-dependent protein kinase type 1D (Homo sapiens), sequence (Q8IU85 whole entry, looked up): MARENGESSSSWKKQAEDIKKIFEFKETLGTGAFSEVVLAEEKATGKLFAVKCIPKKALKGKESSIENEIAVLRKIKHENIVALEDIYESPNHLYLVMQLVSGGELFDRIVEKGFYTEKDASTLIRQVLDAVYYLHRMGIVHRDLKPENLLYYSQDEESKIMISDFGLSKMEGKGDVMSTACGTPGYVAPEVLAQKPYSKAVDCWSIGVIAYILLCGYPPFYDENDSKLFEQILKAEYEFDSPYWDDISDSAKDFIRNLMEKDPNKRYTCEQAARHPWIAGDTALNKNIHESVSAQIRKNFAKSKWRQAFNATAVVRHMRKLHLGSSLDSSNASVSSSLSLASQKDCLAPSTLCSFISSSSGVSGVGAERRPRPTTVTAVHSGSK
# [26] = molecular target: Macrophage-stimulating protein receptor (Homo sapiens) (UniProt Q04912); details: Compound concentration 1000.0 nM
# [27] = molecular target: Hepatocyte growth factor receptor (Homo sapiens) (UniProt P08581); details: Compound concentration 1000.0 nM
# [28] = molecular target: TGF-beta receptor type-2 (Homo sapiens) (UniProt P37173); details: Compound concentration 1000.0 nM
# [29] = molecular target: D(1A) dopamine receptor (Homo sapiens) (UniProt P21728); details: Compound concentration 10.0 uM
# [30] = molecular target: T1, 5-hydroxytryptamine receptor 3A (Homo sapiens) (UniProt P46098); details: Compound concentration 10.0 uM
# T1 sequence (whole entry): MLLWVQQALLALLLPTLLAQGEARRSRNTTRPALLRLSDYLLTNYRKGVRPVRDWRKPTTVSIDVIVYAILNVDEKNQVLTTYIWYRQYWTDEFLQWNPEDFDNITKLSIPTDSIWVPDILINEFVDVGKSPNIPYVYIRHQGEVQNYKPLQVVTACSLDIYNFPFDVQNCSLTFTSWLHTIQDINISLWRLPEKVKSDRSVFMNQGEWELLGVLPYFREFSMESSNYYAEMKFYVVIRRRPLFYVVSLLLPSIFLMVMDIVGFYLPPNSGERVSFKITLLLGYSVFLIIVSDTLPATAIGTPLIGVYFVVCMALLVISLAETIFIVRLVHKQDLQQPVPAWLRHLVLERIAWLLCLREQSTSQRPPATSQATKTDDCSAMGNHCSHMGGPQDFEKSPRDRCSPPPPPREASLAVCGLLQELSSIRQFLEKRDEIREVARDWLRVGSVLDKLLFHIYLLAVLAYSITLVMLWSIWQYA
# [31] = molecular target: Mitogen-activated protein kinase kinase kinase 12 (Homo sapiens) (UniProt Q12852); details: Compound concentration 1000.0 nM
# [32] = molecular target: Mast/stem cell growth factor receptor Kit (Homo sapiens) (UniProt P10721); details: Compound concentration 1000.0 nM
# Mast/stem cell growth factor receptor Kit (Homo sapiens), sequence (P10721 whole entry): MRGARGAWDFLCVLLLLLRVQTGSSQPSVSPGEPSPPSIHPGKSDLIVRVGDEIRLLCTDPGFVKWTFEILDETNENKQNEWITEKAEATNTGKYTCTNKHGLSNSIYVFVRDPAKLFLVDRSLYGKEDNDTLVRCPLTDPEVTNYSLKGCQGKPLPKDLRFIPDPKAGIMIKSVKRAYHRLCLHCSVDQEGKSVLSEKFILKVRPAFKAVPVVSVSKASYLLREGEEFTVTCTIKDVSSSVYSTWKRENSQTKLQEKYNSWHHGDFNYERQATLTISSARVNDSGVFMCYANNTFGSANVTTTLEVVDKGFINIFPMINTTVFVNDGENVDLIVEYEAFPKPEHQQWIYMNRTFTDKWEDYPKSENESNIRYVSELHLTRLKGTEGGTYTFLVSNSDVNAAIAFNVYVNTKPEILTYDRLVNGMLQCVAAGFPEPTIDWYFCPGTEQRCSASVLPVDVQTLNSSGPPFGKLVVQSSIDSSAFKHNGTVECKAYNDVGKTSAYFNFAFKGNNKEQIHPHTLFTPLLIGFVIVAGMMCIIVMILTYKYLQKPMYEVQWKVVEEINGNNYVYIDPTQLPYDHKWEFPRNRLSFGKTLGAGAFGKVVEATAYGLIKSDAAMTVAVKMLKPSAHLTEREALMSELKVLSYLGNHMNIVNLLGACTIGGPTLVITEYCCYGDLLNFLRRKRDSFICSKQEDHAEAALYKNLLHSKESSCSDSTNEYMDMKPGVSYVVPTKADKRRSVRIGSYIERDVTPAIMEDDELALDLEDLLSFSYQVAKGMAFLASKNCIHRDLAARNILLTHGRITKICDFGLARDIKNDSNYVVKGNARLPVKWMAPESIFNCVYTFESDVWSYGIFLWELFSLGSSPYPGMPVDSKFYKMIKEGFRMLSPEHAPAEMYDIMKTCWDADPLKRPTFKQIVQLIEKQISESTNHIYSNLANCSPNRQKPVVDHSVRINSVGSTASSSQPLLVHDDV
# [33] = molecular target: Mast/stem cell growth factor receptor Kit (Homo sapiens) (UniProt P10721); details: Compound concentration 1000.0 nM; remark: listed apart in the source
# [34] = molecular target: Ribosomal protein S6 kinase alpha-3 (Homo sapiens) (UniProt P51812); details: Compound concentration 1000.0 nM
SMILES,residual activity [1] [%],residual activity [2] [%],residual activity [3] [%],residual activity [4] [%],residual activity [5] [%],residual activity [6] [%],residual activity [7] [%],residual activity [8] [%],residual activity [9] [%],residual activity [10] [%],residual activity [11] [%],residual activity [12] [%],residual activity [13] [%],residual activity [14] [%],residual activity [15] [%],residual activity [16] [%],residual activity [17] [%],residual activity [18] [%],inhibition [19] [%],residual activity [20] [%],further results
CCC(=N\O)/C(C)=C/c1ccc(F)c(C)c1 [A-226],88,23,100,100,49,100,100,79,72,96,100,99,100,100,88,73,98,100,-1.52,100,residual activity [21]: 85%; inhibition [22]: 8.28%; residual activity [23]: 100%; residual activity [24]: 88%; residual activity [25]: 92%; residual activity [26]: 100%; residual activity [27]: 100%; residual activity [28]: 97%; inhibition [29]: -0.91%; inhibition [30]: 0.44%; residual activity [31]: 100%; residual activity [32]: 100%; residual activity [33]: 91%; residual activity [34]: 100%
CCC(=N\O)/C(C)=C/c1ccc(F)cc1 [A-079],79,96,79,78,74,100,88,88,100,93,100,74,91,65,78,100,87,75,-5.9,57,residual activity [21]: 100%; inhibition [22]: 13%; residual activity [23]: 86%; residual activity [24]: 87%; residual activity [25]: 100%; residual activity [26]: 100%; residual activity [27]: 88%; residual activity [28]: 74%; inhibition [29]: 13.4%; inhibition [30]: -4.62%; residual activity [31]: 76%; residual activity [32]: 80%; residual activity [33]: 100%; residual activity [34]: 81%

# Source: ChEMBL document CHEMBL4507256 (2021)
